From EP1027888B1, “Osmotic system for delivery of solid amorphous dispersions of drugs” (Pfizer Products Inc., priority 1999, dated 2000)
Values after ≈ are worked out from the molar mass of the structure shown.

Legend:
[1] = dissolution in phosphate buffered saline (PBS) solution (Example 3); type: physicochemical; details: 35 ml PBS solution
Method: For a comparative dissolution study, Control E, consisting of 35 mg of crystalline Drug 2 was prepared. The dissolution of drug was studied by placing two of the trilayer tablets and Control E each in 35 ml of a phosphate buffered saline (PBS) solution composed of 6 mM KH2PO4, 5 mM NaOH, 60 mM KC1 and 30 mM NaCl. The data for the trilayer tablet is the average of the values for the two tablets tested.

[2] = dissolution in phosphate-buffered solution pH 7.2 (Example 7); type: physicochemical; details: 50 ml phosphate-buffered solution pH 7.2
Method: For a comparative dissolution study, Control G, consisting of 100 mg of crystalline Drug 2 was prepared. The dissolution of drug was studied by placing one each of the bi-layer tablet and Control G preparation containing an equal amount of Drug 2 in 50 ml of the phosphate-buffered solution of Example 3 (pH 7.2, osmotic pressure 5.3 atm) to simulate an intestinal environment of use.

[3] = physchem; details: water
[4] = dissolution in MFD solution (Example 8); type: physicochemical; details: 40 ml MFD solution
Method: For a comparative dissolution study, Control H, consisting of 111.4 mg of the crystalline drug, was used. The dissolution of drug was studied by placing the bilayer tablet and Control H each in 40 ml of MFD solution.

[5] = dissolution in MFD solution (Example 6); type: physicochemical; details: 50 ml MFD solution
Method: A Model Fasted Duodenum (MFD) solution was prepared to mimic the chemical environment of the small intestine, the solution comprising a phosphate-buffered saline solution containing 14.7 mM sodium taurocholic acid and 2.8 mM of 1-palmitoyl-2-oleyl-sn-glycero-3-phosphocholine with a pH of 6.5.
The data for the tri-layer tablet is the average of the values for the two tablets tested.

## O=C(N[C@@H](Cc1ccccc1)[C@@H](O)C(=O)N1C[C@@H](O)[C@@H](O)C1)c1cc2cc(Cl)ccc2[nH]1 [Drug 2]
[1]
  MDC: 171 µg/mL
[1]; time 0.3 hr
  [Drug]: 99 µg/mL
[1]; time 1.5 hr
  [Drug]: 148 µg/mL
[1]; time 2.0 hr
  [Drug]: 165 µg/mL
[1]; time 3.0 hr
  [Drug]: 137 µg/mL
[1]; time 4.0 hr
  [Drug]: 142 µg/mL
[1]; time 12.0 hr
  [Drug]: 157 µg/mL
[1]; time 20.0 hr
  [Drug]: 171 µg/mL
[2]
  MDC: 77 µg/mL
[2]; time 0 hr
  [Drug]: 0 µg/mL
[2]; time 1 hr
  [Drug]: 59 µg/mL
[2]; time 2 hr
  [Drug]: 72 µg/mL
[2]; time 4 hr
  [Drug]: 72 µg/mL
[2]; time 8 hr
  [Drug]: 77 µg/mL
[2]; time 12 hr
  [Drug]: 71 µg/mL
[2]; time 18 hr
  [Drug]: 71 µg/mL
[2]; time 24 hr
  [Drug]: 75 µg/mL
[3]
  solubility: 80 µg/mL (≈ 175 µM)

## CN[C@H]1CC[C@@H](c2ccc(Cl)c(Cl)c2)c2ccccc21 [sertraline]
[4]
  MDC: 401 µg/mL
[4]; time 0 hr
  [Drug]: 0 µg/mL
[4]; time 0.2 hr
  [Drug]: 278 µg/mL
[4]; time 0.3 hr
  [Drug]: 401 µg/mL
[4]; time 0.7 hr
  [Drug]: 341 µg/mL
[4]; time 1.5 hr
  [Drug]: 217 µg/mL
[4]; time 2 hr
  [Drug]: 188 µg/mL
[4]; time 3 hr
  [Drug]: 168 µg/mL
[4]; time 4 hr
  [Drug]: 152 µg/mL
[4]; time 6 hr
  [Drug]: 160 µg/mL
[4]; time 10 hr
  [Drug]: 137 µg/mL
[4]; time 14 hr
  [Drug]: 135 µg/mL
[4]; time 24 hr
  [Drug]: 191 µg/mL
[4]; up to 0 hr
  AUC: 0 µg·min/mL
[4]; up to 0.2 hr
  AUC: 830 µg·min/mL
[4]; up to 0.3 hr
  AUC: 4,230 min·µg/mL
[4]; up to 0.7 hr
  AUC: 11,650 min·µg/mL
[4]; up to 1.5 hr
  AUC: 25,610 min·µg/mL
[4]; up to 2 hr
  AUC: 31,700 min·µg/mL
[4]; up to 3 hr
  AUC: 42,400 min·µg/mL
[4]; up to 4 hr
  AUC: 52,000 min·µg/mL
[4]; up to 6 hr
  AUC: 70,640 min·µg/mL
[4]; up to 10 hr
  AUC: 106,200 min·µg/mL
[4]; up to 14 hr
  AUC: 122,500 min·µg/mL

## [R-(R*,S*)]-5-chloro-N-[2-hydroxy-3-[methoxymethylamino)-3-1-(phenylmethyl)propyl]propyl]-1H-indole-2-carboxamide [Drug 1]
[5]
  MDC: 16 µg/mL
[5]; time 0 hr
  [Drug]: 0 µg/mL
[5]; time 2 hr
  [Drug]: 13 µg/mL
[5]; time 4 hr
  [Drug]: 16 µg/mL
[5]; time 8 hr
  [Drug]: 13 µg/mL
[5]; time 12 hr
  [Drug]: 15 µg/mL
[5]; time 20 hr
  [Drug]: 12 µg/mL
[5]; time 24 hr
  [Drug]: 11 µg/mL
